In article PMC2919811 (Analytical biochemistry, 2010):
Read-outs that look alike come from different tables or passages of the source.

Tests used:
OATP1B1 [1] = target: T1, OATP1B1 (Homo sapiens, UniProt Q9Y6L6); conditions: read-out: OATP1B1 Km; literature value; cited from earlier work
OATP1B1 [2] = target: T1, OATP1B1
OATP1B3 [3] = target: T2, OATP1B3 (Homo sapiens, UniProt Q9NPD5); experiment: Substrate uptake and transport kinetics in CHO cells stably expressing OATP1B3; conditions: 2 μM substrate, five minute accumulation, CHOvector = 1
T2 sequence (Q9NPD5 1-702): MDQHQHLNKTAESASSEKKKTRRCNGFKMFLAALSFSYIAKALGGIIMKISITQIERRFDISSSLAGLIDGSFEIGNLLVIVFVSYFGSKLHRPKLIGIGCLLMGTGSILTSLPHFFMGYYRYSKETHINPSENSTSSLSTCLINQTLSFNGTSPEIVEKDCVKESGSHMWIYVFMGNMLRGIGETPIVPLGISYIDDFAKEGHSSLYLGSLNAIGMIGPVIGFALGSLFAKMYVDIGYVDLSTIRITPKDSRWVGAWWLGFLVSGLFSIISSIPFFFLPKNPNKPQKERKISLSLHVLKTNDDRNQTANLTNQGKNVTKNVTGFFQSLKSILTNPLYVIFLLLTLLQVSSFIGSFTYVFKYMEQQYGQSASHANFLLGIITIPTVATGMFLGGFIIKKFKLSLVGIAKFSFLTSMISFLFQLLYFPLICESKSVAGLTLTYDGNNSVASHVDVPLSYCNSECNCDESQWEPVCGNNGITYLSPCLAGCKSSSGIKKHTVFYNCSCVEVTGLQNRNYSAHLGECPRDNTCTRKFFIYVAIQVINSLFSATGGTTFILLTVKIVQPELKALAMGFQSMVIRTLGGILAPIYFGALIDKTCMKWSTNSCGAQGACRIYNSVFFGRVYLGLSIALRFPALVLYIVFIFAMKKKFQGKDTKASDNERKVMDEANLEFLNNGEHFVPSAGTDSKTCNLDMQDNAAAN

OATP1B3 [4] = target: T2, OATP1B3
OATP1B3 [5] = target: T2, OATP1B3; experiment: Cellular accumulation in CHO cells transiently transfected with OATP1B3; conditions: 2 μM substrate (figure 2 legend), transiently transfected CHO cells
OATP2B1 [6] = target: T3, OATP2B1 (Homo sapiens, UniProt O94956); experiment: Substrate uptake in CHO cells stably expressing OATP2B1; type: cell-based; conditions: 2 μM substrate, five minute accumulation, CHOvector = 1
T3 sequence (O94956 1-709): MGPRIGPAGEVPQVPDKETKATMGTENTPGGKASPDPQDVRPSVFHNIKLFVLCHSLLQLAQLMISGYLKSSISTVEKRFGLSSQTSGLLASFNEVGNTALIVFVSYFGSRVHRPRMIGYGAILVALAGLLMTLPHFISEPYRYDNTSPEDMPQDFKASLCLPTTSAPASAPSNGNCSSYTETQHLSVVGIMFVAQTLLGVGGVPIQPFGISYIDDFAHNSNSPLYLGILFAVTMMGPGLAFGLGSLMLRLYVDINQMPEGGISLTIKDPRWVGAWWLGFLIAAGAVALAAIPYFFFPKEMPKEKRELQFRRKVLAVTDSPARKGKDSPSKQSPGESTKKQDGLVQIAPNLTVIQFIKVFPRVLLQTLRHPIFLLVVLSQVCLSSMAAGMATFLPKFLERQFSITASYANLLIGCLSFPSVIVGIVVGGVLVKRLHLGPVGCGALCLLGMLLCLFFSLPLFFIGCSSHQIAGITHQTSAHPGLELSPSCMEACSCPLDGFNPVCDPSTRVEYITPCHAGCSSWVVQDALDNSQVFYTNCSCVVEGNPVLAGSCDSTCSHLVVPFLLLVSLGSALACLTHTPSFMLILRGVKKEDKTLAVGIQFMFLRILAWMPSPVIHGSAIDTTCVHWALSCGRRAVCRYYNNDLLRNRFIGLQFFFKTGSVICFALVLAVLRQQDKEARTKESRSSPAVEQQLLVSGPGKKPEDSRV

OATP1B3 [7] = target: T2, OATP1B3; conditions: read-out: OATP1B3 Km; literature value; cited from earlier work
OAT3 = target: T4, OAT3 (Homo sapiens, UniProt Q8TCC7); type: cell-based; conditions: 2 μM substrate, transiently transfected CHO cells
T4 sequence (Q8TCC7 1-542): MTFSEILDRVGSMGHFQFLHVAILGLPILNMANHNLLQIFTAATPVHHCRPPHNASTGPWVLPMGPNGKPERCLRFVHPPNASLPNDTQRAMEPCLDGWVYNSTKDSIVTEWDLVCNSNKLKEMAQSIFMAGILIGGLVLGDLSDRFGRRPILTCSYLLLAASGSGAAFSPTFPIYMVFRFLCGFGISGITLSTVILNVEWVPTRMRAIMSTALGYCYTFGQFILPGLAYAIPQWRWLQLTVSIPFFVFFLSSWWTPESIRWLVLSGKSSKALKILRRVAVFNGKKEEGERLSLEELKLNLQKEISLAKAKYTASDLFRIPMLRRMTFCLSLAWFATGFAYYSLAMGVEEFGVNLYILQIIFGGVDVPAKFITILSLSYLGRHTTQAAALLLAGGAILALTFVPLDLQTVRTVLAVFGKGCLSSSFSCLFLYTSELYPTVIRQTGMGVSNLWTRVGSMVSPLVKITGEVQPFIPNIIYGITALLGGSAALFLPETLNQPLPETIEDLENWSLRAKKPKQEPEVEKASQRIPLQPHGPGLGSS

OATP1B1 [8] = target: T1, OATP1B1; conditions: 2 μM substrate, transiently transfected CHO cells
OATP2B1 [9] = target: T3, OATP2B1; experiment: Cellular accumulation in CHO cells transiently transfected with OATP2B1; type: cell-based; conditions: 2 μM substrate, transiently transfected CHO cells
OATP1B1 [10] = target: T1, OATP1B1; experiment: Substrate uptake and transport kinetics in CHO cells stably expressing OATP1B1; conditions: 2 μM substrate, five minute accumulation, CHOvector = 1
OCT1 = target: T5, OCT1 (Homo sapiens, UniProt O15245); experiment: Cellular accumulation in CHO cells transiently transfected with OCT1; type: cell-based; conditions: 10 μM substrate, transiently transfected CHO cells
T5 sequence (O15245 1-554): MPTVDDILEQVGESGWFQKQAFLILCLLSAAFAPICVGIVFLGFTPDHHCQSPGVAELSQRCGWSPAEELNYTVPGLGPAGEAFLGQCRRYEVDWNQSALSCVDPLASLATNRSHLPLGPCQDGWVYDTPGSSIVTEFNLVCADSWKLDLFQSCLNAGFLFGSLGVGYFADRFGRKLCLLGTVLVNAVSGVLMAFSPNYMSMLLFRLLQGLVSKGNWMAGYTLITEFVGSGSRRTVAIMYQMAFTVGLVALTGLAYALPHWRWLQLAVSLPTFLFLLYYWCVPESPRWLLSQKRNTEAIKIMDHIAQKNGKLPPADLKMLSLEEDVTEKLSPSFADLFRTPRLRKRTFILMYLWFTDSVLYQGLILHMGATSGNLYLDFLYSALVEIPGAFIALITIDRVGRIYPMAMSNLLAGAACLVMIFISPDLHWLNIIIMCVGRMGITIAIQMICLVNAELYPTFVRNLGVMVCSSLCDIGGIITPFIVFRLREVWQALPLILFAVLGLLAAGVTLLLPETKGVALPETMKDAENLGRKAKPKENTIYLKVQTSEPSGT

OCT2 = target: T6, OCT2 (Homo sapiens, UniProt O15244); experiment: Cellular accumulation in CHO cells transiently transfected with OCT2; type: cell-based; conditions: 10 μM substrate, transiently transfected CHO cells
T6 sequence (O15244 1-555): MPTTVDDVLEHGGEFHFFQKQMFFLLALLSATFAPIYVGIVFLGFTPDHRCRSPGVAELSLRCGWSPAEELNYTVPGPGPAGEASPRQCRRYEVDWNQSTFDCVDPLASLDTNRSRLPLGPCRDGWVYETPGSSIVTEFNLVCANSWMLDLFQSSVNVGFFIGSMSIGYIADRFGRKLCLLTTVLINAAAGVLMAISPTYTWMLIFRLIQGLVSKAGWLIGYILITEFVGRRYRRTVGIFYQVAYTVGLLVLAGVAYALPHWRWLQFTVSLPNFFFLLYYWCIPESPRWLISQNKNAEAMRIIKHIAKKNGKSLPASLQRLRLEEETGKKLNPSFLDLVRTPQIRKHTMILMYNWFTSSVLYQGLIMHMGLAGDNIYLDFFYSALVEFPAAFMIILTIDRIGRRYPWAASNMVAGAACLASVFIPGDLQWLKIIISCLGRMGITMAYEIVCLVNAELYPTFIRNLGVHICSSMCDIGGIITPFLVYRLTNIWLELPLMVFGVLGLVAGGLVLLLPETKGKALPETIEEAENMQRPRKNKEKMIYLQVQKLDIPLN

NTCP = target: T7, NTCP (Homo sapiens, UniProt Q14973); experiment: Cellular accumulation in CHO cells transiently transfected with NTCP; type: cell-based; conditions: 2 μM substrate, transiently transfected CHO cells
T7 sequence (Q14973 1-349): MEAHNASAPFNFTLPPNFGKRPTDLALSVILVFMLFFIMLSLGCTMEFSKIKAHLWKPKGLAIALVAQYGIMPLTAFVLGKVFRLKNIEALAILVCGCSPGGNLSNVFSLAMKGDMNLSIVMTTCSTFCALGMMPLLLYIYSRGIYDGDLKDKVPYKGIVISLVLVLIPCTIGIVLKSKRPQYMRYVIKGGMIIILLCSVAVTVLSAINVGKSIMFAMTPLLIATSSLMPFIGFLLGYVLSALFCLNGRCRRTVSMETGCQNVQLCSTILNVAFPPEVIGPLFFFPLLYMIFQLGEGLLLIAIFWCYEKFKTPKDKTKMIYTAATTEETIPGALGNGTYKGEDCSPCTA

[11] = read-out: OATP1B1 IC50 value, inhibition of OATP1B1-mediated transport of […] 8-FcA, 10 min, mean ± standard error, two experiments
[12] = read-out: OATP1B3 IC50 value, inhibition of OATP1B3-mediated transport of 1.25 μM 8-FcA, 10 min, mean ± standard error, two experiments

T1 sequence (Q9Y6L6 whole entry): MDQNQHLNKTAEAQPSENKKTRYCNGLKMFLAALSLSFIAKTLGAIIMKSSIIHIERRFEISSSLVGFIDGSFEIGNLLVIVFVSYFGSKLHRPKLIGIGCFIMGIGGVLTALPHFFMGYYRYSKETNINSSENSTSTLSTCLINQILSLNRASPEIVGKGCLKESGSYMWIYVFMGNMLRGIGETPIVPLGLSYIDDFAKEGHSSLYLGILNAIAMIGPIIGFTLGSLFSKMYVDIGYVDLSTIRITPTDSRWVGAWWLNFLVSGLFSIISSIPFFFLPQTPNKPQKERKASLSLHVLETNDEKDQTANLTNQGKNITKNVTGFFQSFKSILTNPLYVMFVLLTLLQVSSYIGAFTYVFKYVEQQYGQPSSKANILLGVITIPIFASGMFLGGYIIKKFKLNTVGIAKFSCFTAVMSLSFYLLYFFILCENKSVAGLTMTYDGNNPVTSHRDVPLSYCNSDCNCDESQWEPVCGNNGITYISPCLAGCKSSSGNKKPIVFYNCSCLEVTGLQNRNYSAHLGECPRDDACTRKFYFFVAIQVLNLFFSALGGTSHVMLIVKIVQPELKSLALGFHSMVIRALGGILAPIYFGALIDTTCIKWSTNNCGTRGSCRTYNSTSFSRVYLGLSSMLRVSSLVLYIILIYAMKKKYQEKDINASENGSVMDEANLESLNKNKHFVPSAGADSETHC

IC50 (OATP1B3 [4]) [nM] | SMILES | Km (OATP1B1 [1]) [µM] | IC50 (OATP1B1 [2]; [11]) [nM] | IC50 (OATP1B3 [4]; [12]) [nM] | Km (OATP1B3 [7]) [µM] | further results
 | O=C1OC(c2ccc(O)c(S(=O)(=O)O)c2)(c2ccc(O)c(S(=O)(=O)O)c2)c2c(Br)c(Br)c(Br)c(Br)c21 [bromosulfophthalein] | 0.3 | 180 ± 20 | 510 ± 20 | 0.4 | cellular accumulation relative to control, CHOOATP1B3 (OATP1B3 [3]): 13.8 fold; increase in activity versus vector control, OATP1B3 (OATP1B3 [5]): 1.26 fold; cellular accumulation relative to control, CHOOATP2B1 (OATP2B1 [6]): 6.6 fold
 | C[C@]12CC[C@@H]3c4ccc(O)cc4CC[C@H]3[C@@H]1CC[C@@H]2O[C@@H]1O[C@H](C(=O)O)[C@@H](O)[C@H](O)[C@H]1O [estradiol-17β-d-glucuronide] | 5.4 | 4880 ± 870 | 23500 ± 1590 | 15.8 | 
 | C[C@]12CC[C@@H]3c4ccc(OS(=O)(=O)O)cc4CC[C@H]3[C@@H]1CCC2=O [estrone-3-sulfate] |  | 53 ± 5 | 20100 ± 1000 | 58 | increase in activity compared to vector control, OAT3 (OAT3): 3.8 fold; cellular accumulation relative to control, CHOOATP1B3 (OATP1B3 [3]): 4.1 fold; increase in activity compared to vector control, OATP1B1 (OATP1B1 [8]): 3.1 fold; increase in activity compared to vector control, OATP2B1 (OATP2B1 [9]): 12.5 fold; cellular accumulation relative to control, CHOOATP1B1 (OATP1B1 [10]): 36.1 fold
2690 ± 120 | COc1ccc(Cl)cc1C(=O)NCCc1ccc(S(=O)(=O)NC(=O)NC2CCCCC2)cc1 [glibenclamide] |  |  |  |  | 
 | CN(C)C(=N)N=C(N)N [metformin] |  |  |  |  | mean increase in transport over vector control, OCT1 (OCT1): 2.4 fold; mean increase in transport over vector control, OCT2 (OCT2): 24.5 fold
650 ± 20 | CO[C@H]1/C=C/O[C@@]2(C)Oc3c(C)c(O)c4c(O)c(c(/C=N/N5CCN(C)CC5)c(O)c4c3C2=O)NC(=O)/C(C)=C\C=C\[C@H](C)[C@H](O)[C@@H](C)[C@@H](O)[C@@H](C)[C@H](OC(C)=O)[C@@H]1C [rifampicin] | 13 |  |  |  | IC50 (OATP1B1 [2]): 990 ± 70 nM
 | C[C@H](CCC(=O)NCCS(=O)(=O)O)[C@H]1CC[C@H]2[C@@H]3[C@H](O)C[C@@H]4C[C@H](O)CC[C@]4(C)[C@H]3C[C@H](O)[C@]12C [taurocholate] |  |  |  |  | increase in transport compared to vector control, NTCP (NTCP): 168.9 fold

SMILES | IC50 (OATP1B3 [4]) [nM] | Km (OATP1B1 [1]) [µM] | IC50 (OATP1B1 [2]; [11]) [nM] | IC50 (OATP1B3 [4]; [12]) [nM] | Km (OATP1B3 [7]) [µM] | further results
NC(Cc1cc(I)c(Oc2cc(I)c(O)c(I)c2)c(I)c1)C(=O)O (centres unmarked) [thyroxine] | 2130 ± 170 | 3 |  |  |  | IC50 (OATP1B1 [2]): 3850 ± 880 nM
